Data reported in patent US20260022142A1, “MACROCYCLIC IMMUNOMODULATORS” (Bristol-Myers Squibb Company, priority 2022, published 2026).
Bridge positions count the residues as written; N and C are the ends. Square brackets hold non-standard residues; d marks the D form. Peptide text beside a SMILES is read from it. * marks the point of attachment. Phe(3-CF3) = N[C@@H](Cc1cccc(C(F)(F)F)c1)C(=O)O; Ala(morpholin-4-yl) = N[C@@H](CN1CCOCC1)C(=O)O; Phe(4-COOH) = N[C@@H](Cc1ccc(C(=O)O)cc1)C(=O)O; Bip = N[C@@H](Cc1ccc(-c2ccccc2)cc1)C(=O)O; NH(CH2)14COOH = O=C(O)CCCCCCCCCCCCCCN*; Abu(3S-NH2) = C[C@H](N)[C@H](N)C(=O)O; NH(CH2)12COOH = O=C(O)CCCCCCCCCCCCN*; Val(3-OH) = CC(C)(O)[C@H](N)C(=O)O; Cha = N[C@@H](CC1CCCCC1)C(=O)O; PEG4 = NCCOCCOCCOCCOCCC(=O)O; Carboxymethyl = O=C(O)C*; Orn = NCCC[C@H](N)C(=O)O; Dab = NCC[C@H](N)C(=O)O

Target: T1, PD-1/PD-L1 interaction (PE-labeled human PD-L1-Ig binding to Jurkat cell line over-expressing human PD-1) (Homo sapiens, UniProt Q15116)
T1 construct: expressed in transfected cells; host or cells: Jurkat
Experiment: Jurkat-PD-1 Cell Binding High-Content Screening Assay (CBA)
Assay type: cell-based
Settings: Jurkat cell line over-expressing human PD-1; PE-labeled PD-L1-Ig 20 nM final; read-out: Jurkat hPD1-PDL1 IC50
How it was run: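 Binding of fluorescent PD-L1-Ig (phycoerythrin on Ig tag, 20 nM final, 1 h) measured by high-content imaging of fixed, Hoechst-counterstained Jurkat-hPD-1 cells. Compound added 2 h at 37° C beforehand, in DMEM with 10% fetal calf serum.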

T1 sequence (Q15116 25-288): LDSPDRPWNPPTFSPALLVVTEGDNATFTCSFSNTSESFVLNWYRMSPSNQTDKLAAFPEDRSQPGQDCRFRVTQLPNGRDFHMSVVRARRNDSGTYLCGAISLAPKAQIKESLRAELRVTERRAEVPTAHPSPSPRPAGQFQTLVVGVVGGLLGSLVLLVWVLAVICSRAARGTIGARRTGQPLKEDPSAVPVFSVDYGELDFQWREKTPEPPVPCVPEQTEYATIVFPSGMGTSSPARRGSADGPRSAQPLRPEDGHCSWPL

Row | SMILES | IC50
1 | CC(C)C[C@H]1NC(=O)[C@H](CCCN)NC(=O)[C@H](Cc2ccc(C(=O)O)cc2)NC(=O)[C@H](Cc2ccc(-c3ccccc3)cc2)NC(=O)[C@H](Cc2ccc(C(=O)O)cc2)NC(=O)[C@H](Cc2cccc(C(F)(F)F)c2)NC(=O)[C@H](CC(=O)O)NC(=O)[C@H](Cc2ccc(OCC(=O)O)cc2)NC(=O)[C@H]([C@H](C)N)NC(=O)CSC[C@@H](C(=O)N[C@@H](CCN)C(=O)NCCCCCCCCCCCCC(=O)O)NC(=O)[C@H](CO)NC(=O)[C@H](C(C)(C)O)NC(=O)[C@H](CC2CCCCC2)NC(=O)[C@H](CCN)NC1=O [Compound 2944] ({CH2CO}-[Abu(3S-NH2)]Y(Carboxymethyl)D[Phe(3-CF3)][Phe(4-COOH)][Bip][Phe(4-COOH)][Orn][dL][Dab][Cha][Val(3-OH)]SC[Dab]-{NH(CH2)12COOH}; thioether N-14) | 0.055 µM
2 | CC(C)C[C@H]1NC(=O)[C@H](CCCN)NC(=O)[C@H](Cc2ccc(C(=O)O)cc2)NC(=O)[C@H](Cc2ccc(-c3ccccc3)cc2)NC(=O)[C@H](Cc2ccc(C(=O)O)cc2)NC(=O)[C@H](Cc2cccc(C(F)(F)F)c2)NC(=O)[C@H](CC(=O)O)NC(=O)[C@H](Cc2ccc(OCC(=O)O)cc2)NC(=O)[C@H](CN2CCOCC2)NC(=O)CSC[C@@H](C(=O)N[C@@H](CCN)C(=O)NCCOCCOCCOCCOCCC(=O)NCCCCCCCCCCCCC(=O)O)NC(=O)[C@H](CC(=O)O)NC(=O)[C@H](C(C)(C)O)NC(=O)[C@H](CC2CCCCC2)NC(=O)[C@H](CCN)NC1=O [Compound 2947] ({CH2CO}-[Ala(morpholin-4-yl)]Y(Carboxymethyl)D[Phe(3-CF3)][Phe(4-COOH)][Bip][Phe(4-COOH)][Orn][dL][Dab][Cha][Val(3-OH)]DC[Dab][PEG4]-{NH(CH2)12COOH}; thioether N-14) | 0.0644 µM
3 | CC(C)C[C@H]1NC(=O)[C@H](CCCN)NC(=O)[C@H](Cc2ccc(C(=O)O)cc2)NC(=O)[C@H](Cc2ccc(-c3ccccc3)cc2)NC(=O)[C@H](Cc2ccc(C(=O)O)cc2)NC(=O)[C@H](Cc2cccc(C(F)(F)F)c2)NC(=O)[C@H](CC(=O)O)NC(=O)[C@H](Cc2ccc(OCC(=O)O)cc2)NC(=O)[C@H](CN2CCOCC2)NC(=O)CSC[C@@H](C(=O)N[C@@H](CCN)C(=O)NCCOCCOCCOCCOCCC(=O)NCCCCCCCCCCCCCCC(=O)O)NC(=O)[C@H](CC(=O)O)NC(=O)[C@H](C(C)(C)O)NC(=O)[C@H](CC2CCCCC2)NC(=O)[C@H](CCN)NC1=O [Compound 2948] ({CH2CO}-[Ala(morpholin-4-yl)]Y(Carboxymethyl)D[Phe(3-CF3)][Phe(4-COOH)][Bip][Phe(4-COOH)][Orn][dL][Dab][Cha][Val(3-OH)]DC[Dab][PEG4]-{NH(CH2)14COOH}; thioether N-14) | 0.352 µM
4 | CC(C)C[C@H]1NC(=O)[C@H](CCCN)NC(=O)[C@H](Cc2ccc(C(=O)O)cc2)NC(=O)[C@H](Cc2ccc(-c3ccccc3)cc2)NC(=O)[C@H](Cc2ccc(C(=O)O)cc2)NC(=O)[C@H](Cc2cccc(C(F)(F)F)c2)NC(=O)[C@H](CC(=O)O)NC(=O)[C@H](Cc2ccc(OCC(=O)O)cc2)NC(=O)[C@H](CN2CCOCC2)NC(=O)CSC[C@@H](C(=O)N[C@@H](CCN)C(=O)NCCCCCCCCCCCCCCC(=O)O)NC(=O)[C@H](CC(=O)O)NC(=O)[C@H](C(C)(C)O)NC(=O)[C@H](CC2CCCCC2)NC(=O)[C@H](CCN)NC1=O [Compound 2949] ({CH2CO}-[Ala(morpholin-4-yl)]Y(Carboxymethyl)D[Phe(3-CF3)][Phe(4-COOH)][Bip][Phe(4-COOH)][Orn][dL][Dab][Cha][Val(3-OH)]DC[Dab]-{NH(CH2)14COOH}; thioether N-14) | 0.305 µM
